Results reported in patent US7195752B2, “Surfactant compounds and uses thereof” (Glaxo Group Limited, priority 2001, dated 2007).

Legend:
[1] = Particle size by image analysis (Galai CIS-100) of salmeterol xinafoate HFA 134a suspension; type: physicochemical; settings: salmeterol xinafoate 25 μg per actuation in HFA 134a, 10% w/w (relative to drug) surfactant; mean of 4 determinations
Protocol: (§1) Salmeterol xinafoate formulations in HFA 134a, of strength 25 μg per actuation, and 10% w/w (relative to drug) of the relevant surfactant compound of formula (I) were prepared using salmeterol xinafoate (5.8 mg), HFA 134a (12 g) and the relevant compound (0.58 mg). The control was prepared without the addition of a surfactant.
In this measurement, particle size is represented as the equivalent diameter of a circle of equal area to the object. The mean is the average of 4 determinations. The particle size measurement was obtained by transferring the suspensions to a presurised cell, and video-imaging the sample under shear via a microscope objective.
The equivalent diameter is defined as the diameter of a circle of equal area to the object.
The mean equivalent diameter can be weighted by number, length or volume. e.g. For three particles with equivalent diameters of x, y and z: […]

[2] = Content uniformity by dose through use testing of salmeterol xinafoate HFA 134a inhalers; type: physicochemical; settings: 10% w/w surfactant
Protocol: as §1
The content uniformity of the formulation, the preparation of which is described above, was assessed by dose through use testing. Testing was performed on 10 cans/inhalers at “beginning of use” (BoU) and “end of use” (EoU). After each inhaler had been primed (4 shots fired to waste), actuations 1 and 2 (BoU) were collected. The next 116 actuations of each inhaler were then fired to waste using an automated method and actuations 119 and 120 (EoU) collected.
The assesment of content uniformity was performed intially (following sample preparation). The results are quoted in Table 2 as the mean of the two BoU actuations for 10 inhalers (1+2 for 10 inhalers) and the mean of two EoU actuations for the said 10 inhalers (119+120 for the same 10 inhalers) together with the percentage relative standard deviation (% RSD).

With `O=C(O)COCCCCCCC(F)(F)C(F)(F)F` [Example 5, [(7,7,8,8,8-Pentafluorooctyl)oxy]acetic acid] the “Mean Length weighted diameter” value [1] was 13.8 μm, the “rise in dose from beginning to end of use” value ([2]; EoU minus BoU dose, 10 inhalers, salmeterol xinafoate in HFA 134a) was 1.8 µg and the BoU dose ([2]; beginning of use, mean of actuations 1+2 for 10 inhalers, salmeterol xinafoate 25 μg per actuation in HFA 134a, initial) was 19.0 µg. It also gave an EoU dose ([2]; end of use, mean of actuations 119+120 for 10 inhalers, salmeterol xinafoate 25 μg per actuation in HFA 134a, initial) of 21.8 µg.
